Results on 26 molecules are retold here after ChEMBL document CHEMBL4673331 (J Med Chem, 2020).

Values after ≈ are worked out from the molar mass of the structure shown.

Series [1] concerns the target T1, Mucosa-associated lymphoid tissue lymphoma translocation protein 1 (Homo sapiens, UniProt Q9UDY8).
T1 sequence (Q9UDY8 whole entry): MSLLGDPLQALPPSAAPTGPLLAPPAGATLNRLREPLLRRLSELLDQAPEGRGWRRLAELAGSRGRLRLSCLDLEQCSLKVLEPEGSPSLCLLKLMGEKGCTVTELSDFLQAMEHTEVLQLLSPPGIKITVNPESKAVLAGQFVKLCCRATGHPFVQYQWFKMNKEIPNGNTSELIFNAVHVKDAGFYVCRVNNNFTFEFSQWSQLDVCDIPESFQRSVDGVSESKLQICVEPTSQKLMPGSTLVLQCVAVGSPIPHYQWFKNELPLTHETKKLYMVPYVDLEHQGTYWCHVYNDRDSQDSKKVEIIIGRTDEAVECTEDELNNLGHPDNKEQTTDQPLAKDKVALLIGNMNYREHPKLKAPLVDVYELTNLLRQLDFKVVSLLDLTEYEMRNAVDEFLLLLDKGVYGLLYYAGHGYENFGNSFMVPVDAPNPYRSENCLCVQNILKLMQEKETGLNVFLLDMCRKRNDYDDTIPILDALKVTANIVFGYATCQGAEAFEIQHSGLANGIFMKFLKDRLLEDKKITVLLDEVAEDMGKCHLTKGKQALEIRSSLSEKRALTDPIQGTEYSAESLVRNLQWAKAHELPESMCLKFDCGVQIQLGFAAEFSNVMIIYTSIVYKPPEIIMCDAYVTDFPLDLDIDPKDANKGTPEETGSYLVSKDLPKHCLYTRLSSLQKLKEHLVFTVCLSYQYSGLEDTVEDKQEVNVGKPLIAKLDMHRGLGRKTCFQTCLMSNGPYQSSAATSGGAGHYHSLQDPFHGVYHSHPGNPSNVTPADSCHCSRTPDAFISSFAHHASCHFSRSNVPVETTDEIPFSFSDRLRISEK
The experiment in a line: Allosteric inhibition of human wild-type […] MALT1 (329 to 824 residues) protease activity using Ac-Leu-Arg-Ser-Arg Rh110-dPro as substrate preincubated for 60 mins followed by substrate addition and measured after 60 mins by fluorescence assay.

Series [2] concerns the target T1, Mucosa-associated lymphoid tissue lymphoma translocation protein 1. Kind of series: Allosteric inhibition of MALT1 in human OCI-LY3 cells assessed as reduction in BCL10 cleavage measured after 24 hrs by ELISA. The class given is cell-based, OCILY3. In general terms: An ELISA detects its analyte on a solid surface through an enzyme-linked reagent.
The nature of series [3]: Solubility of the compound at pH 6.8. The class given is physicochemical. The settings on record: buffer.
Series [4] can be described thus: Dose normalized Cmax in Sprague-Dawley rat at 1.25 mg/kg, po administered as solution. It is filed as ADME, organism-based. The settings on record: in vivo.
Series [5] is described as follows: Lipophilicity, log D of the compound at pH 7.4. It is filed as physicochemical. The settings on record: buffer.
A short description of series [6]: Dose normalized AUC in Sprague-Dawley rat at 3 mg/kg, po administered as MCT suspension. The class given is ADME, organism-based. Particulars: in vivo.
A short description of series [7]: Oral bioavailability in Sprague-Dawley rat at 1.25 mg/kg administered as solution. The class given is ADME, organism-based. The settings on record: in vivo.
Series [8] in a line: Protein binding in rat plasma. It is filed as ADME, cell-free. The settings on record: read-out: PPB (converted).
Series [9] is described as follows: Dose normalized Cmax in Sprague-Dawley rat at 3 mg/kg, po administered as MCT suspension. The class given is ADME, organism-based. The settings on record: in vivo.
Series [10] can be described thus: Dose normalized AUC in Sprague-Dawley rat at 1 mg/kg, iv administered as bolus dose. It is filed as ADME, organism-based. The settings on record: in vivo.
Series [11] in a line: Oral bioavailability in Sprague-Dawley rat at 3 mg/kg administered as MCT suspension. The class given is ADME, organism-based. Particulars: in vivo.
A short description of series [12]: Tmax in Sprague-Dawley rat at 1.25 mg/kg, po administered as solution. The class given is ADME, organism-based. Particulars: in vivo.
Series [13] can be described thus: Thermodynamic solubility of the compound at pH 6.8. It is filed as physicochemical. The settings on record: buffer, read-out: Therm_solubility.
Series [14] in a line: Tmax in Sprague-Dawley rat at 3 mg/kg, po administered as MCT suspension. The settings on record: in vivo. It is filed as ADME, organism-based.
Series [15] in a line: Volume of distribution at steady state in Sprague-Dawley rat at 1 mg/kg, iv administered as bolus dose. The class given is ADME, organism-based. Particulars: in vivo, read-out: Vdss.
Series [16] is described as follows: Permeability of compound by PAMPA assay. It is filed as ADME. (In general: In PAMPA a lipid-coated filter parts donor from acceptor wells.)
Series [17] is described as follows: Dose normalized AUC in Sprague-Dawley rat at 1.25 mg/kg, po administered as solution. It is filed as ADME, organism-based. The settings on record: in vivo.
The nature of series [18]: Intrinsic clearance in rat liver microsomes. The class given is ADME, Microsome. The settings on record: read-out: CLH. (In general: Liver microsomes are vesicles of endoplasmic reticulum, rich in cytochrome P450 enzymes.)
Series [19] can be described thus: Clearance in male Sprague-Dawley rat at 1 mg/kg, iv administered as bolus dose. The settings on record: in vivo. It is filed as ADME, organism-based.
The nature of series [20]: Terminal half-life in Sprague-Dawley rat at 1 mg/kg, iv administered as bolus dose. The class given is ADME, organism-based. Particulars: in vivo, read-out: beta t1/2 (converted).
For series [21], the target named is Voltage-gated inwardly rectifying potassium channel KCNH2 (Homo sapiens, UniProt Q12809). Kind of series: Inhibition of human ERG.
The nature of series [22]: Solubility of compound at pH 6.8. The class given is physicochemical. Particulars: buffer.
A short description of series [23]: Solubility of compound at pH 6.8 assessed as extrapolated log of solubility. The settings on record: buffer. It is filed as physicochemical.

Chain of Voltage-gated inwardly rectifying potassium channel KCNH2 (Q12809 whole entry): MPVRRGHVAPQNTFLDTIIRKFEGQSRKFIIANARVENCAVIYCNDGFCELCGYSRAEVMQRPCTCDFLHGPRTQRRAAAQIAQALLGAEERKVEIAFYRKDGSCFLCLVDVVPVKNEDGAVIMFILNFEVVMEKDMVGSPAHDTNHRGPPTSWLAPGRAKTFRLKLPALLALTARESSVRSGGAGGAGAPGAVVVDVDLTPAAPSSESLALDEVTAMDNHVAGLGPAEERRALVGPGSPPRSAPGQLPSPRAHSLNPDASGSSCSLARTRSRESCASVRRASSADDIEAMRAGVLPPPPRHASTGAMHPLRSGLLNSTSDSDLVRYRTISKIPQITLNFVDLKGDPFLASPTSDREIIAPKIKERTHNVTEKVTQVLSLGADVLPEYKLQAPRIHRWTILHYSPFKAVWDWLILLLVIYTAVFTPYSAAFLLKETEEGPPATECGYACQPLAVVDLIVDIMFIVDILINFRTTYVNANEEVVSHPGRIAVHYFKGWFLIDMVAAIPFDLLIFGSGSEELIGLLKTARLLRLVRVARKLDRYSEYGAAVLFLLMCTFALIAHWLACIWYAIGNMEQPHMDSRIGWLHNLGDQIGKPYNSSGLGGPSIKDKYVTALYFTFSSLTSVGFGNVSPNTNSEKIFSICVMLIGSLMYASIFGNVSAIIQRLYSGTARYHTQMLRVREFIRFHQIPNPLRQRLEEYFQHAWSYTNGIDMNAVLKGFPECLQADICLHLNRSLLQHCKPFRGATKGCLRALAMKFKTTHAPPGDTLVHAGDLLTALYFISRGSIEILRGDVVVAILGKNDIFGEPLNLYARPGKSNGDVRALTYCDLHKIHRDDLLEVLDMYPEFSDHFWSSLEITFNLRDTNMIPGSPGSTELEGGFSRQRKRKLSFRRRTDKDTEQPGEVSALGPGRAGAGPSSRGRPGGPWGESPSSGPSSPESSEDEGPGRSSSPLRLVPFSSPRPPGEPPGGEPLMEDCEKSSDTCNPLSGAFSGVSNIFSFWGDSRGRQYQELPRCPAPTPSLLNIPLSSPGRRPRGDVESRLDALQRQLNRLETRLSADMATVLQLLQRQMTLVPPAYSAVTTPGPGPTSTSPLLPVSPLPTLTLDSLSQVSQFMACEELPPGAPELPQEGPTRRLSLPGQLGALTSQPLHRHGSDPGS

Usually IC50 stands for the midpoint of a concentration-inhibition curve. For `O=C(Nc1ccc(-n2cncn2)c(Cl)c1)N[C@H]1COc2ccc(Br)cc2C1`, the IC50 in [1] came to 26 nM; in [2] it was 1960 nM.
In the case of `COc1ncc(NC(=O)NC2COc3ccc(Br)cc3C2)cc1Cl` (stereo not given), the results for the half-maximal inhibitory concentration (IC50) in series [1] and in [2] were 31 nM and 3540 nM, respectively.
Usually solubility stands for how much of the substance goes into solution per volume. Lower therefore signals little dissolved substance. Turning to `COc1ncc(NC(=O)Nc2cnc3cc(Cl)nn3c2N2[C@@H](C)COC[C@@H]2C)cc1Cl`, the IC50 was determined as 6 nM in series [1] and 330 nM in series [2]. In addition, the concentration in solution in series [3] (solubility) came to 81 µM (≈ 37.8 µg/mL).
Turning to `COc1ccc(NC(=O)NC2COc3ccccc3C2)cc1Cl` (racemic), the IC50 in series [1] is 245 nM; in series [2] it was 2300 nM.
In series [1], `COc1ccc(NC(=O)N[C@H]2COc3ccccc3C2)cc1Cl` came in with an IC50 of 135 nM.
For the molecule `COc1ccc(NC(=O)Nc2cnc3ccc(C#N)cc3c2N2CCOC[C@@H]2C)cc1Cl`, the IC50 in series [1] was 6 nM; in [2], 120 nM. For the same molecule, the solubility in series [3] was < 4 µM.
Regarding `COc1ccc(N(C)C(=O)NC2COc3ccc(Br)cc3C2)cc1Cl` (stereo not given), the half-maximal inhibitory concentration (IC50) in [1] was > 100000 nM.
As to `COc1ccc(NC(=O)NC2COc3ccc(C#N)cc3C2)cc1Cl` (racemic), the IC50 in [1] was found to be 150 nM; in series [2], 1920 nM.
For `COc1ccc(NC(=O)NC2CSc3ccc(F)cc3C2)cc1Cl` (racemic), the IC50 in series [1] was found to be 145 nM; in series [2] it was 4270 nM.
In general, logD refers to lipophilicity at a set pH, counting ionised and neutral species. A high value points to a more lipophilic compound. By bioavailability is commonly meant dose-corrected exposure relative to a reference, in per cent. Usually Tmax stands for the time at which the peak concentration occurs. As usually defined, the clearance is the rate of elimination divided by the concentration. Read a high clearance as efficient removal. Take `COc1ncc(NC(=O)Nc2cnc3ccc(C#N)cc3c2N2CCOC[C@@H]2C)cc1Cl`: the figures for the Cmax/dose in series [4] and in [9] were 71 nM and 11 nM, respectively. Moreover, the IC50 in series [1] worked out at 5 nM; in [2], 37 nM. In series [5], this molecule came in with a logD of 3.8. Further, the AUC/dose in [6] was determined as 103 nM·h; in [10], 1240 nM·h; in [17] it was 520 nM·h. Besides, the figures for the bioavailability in [7] and in series [11] were 42% and 8%, respectively. In addition, in [8], the fraction unbound was 0.025. The solubility in series [3] is < 4 µM. Besides, the results for the Tmax in [12] and in [14] were 3 h and 8 h, respectively. For the same molecule, the solubility thermodynamic in series [13] is 0.2 µg/mL (≈ 0.442 µM). For the same molecule, the Vd in series [15] was 4.8 L/kg. For the same molecule, the “log(permeability)” value in series [16] was -4.9. Also, in [18], the microsomal CLint came out at 3.4 µL/min/mg. The same molecule registered a clearance in [19] of 31 mL/min/kg. Further, the half-life in [20] was 2.1 h.
Molecule `COc1ccc(NC(=O)CC2COc3ccccc3C2)cc1Cl` (stereo not given) returned an IC50 in series [1] of 1000 nM.
`COc1ncc(NC(=O)Nc2cnc3ccc(C#N)cc3c2N(C)C2CCOCC2)cc1Cl`: the figures for the IC50 in [1] and in [2] were 2 nM and 190 nM, respectively. The solubility in series [3] is < 4 µM.
Regarding `COc1ccc(CC(=O)NC2COc3ccccc3C2)cc1Cl` (stereo not given), the IC50 in series [1] was > 100000 nM.
As for `COc1ccc(NC(=O)N(C)C2COc3ccc(Br)cc3C2)cc1Cl` (stereo not given), the IC50 in [1] was > 100000 nM.
Consider `COc1ncc(NC(=O)Nc2cnc3cc(Cl)nn3c2N2CCOCC2(C)C)cc1Cl`, for which the figures for the IC50 in series [1] and in [2] were 2 nM and 80 nM, respectively. The solubility in series [3] was < 4 µM.
The corresponding values for `COc1ccc(NC(=O)Nc2cnc3ccc(Br)cc3c2)cc1Cl` are 242 nM, 4820 nM and < 4 µM.
`COc1ccc(NC(=O)NC2COc3ccc(F)cc3C2)cc1Cl` (racemic): the IC50 in [1] was 57 nM; in [2], 1250 nM.
Take `COc1ccc(NC(=O)NC2CCc3ccccc3C2)cc1Cl` (racemic): the IC50 in series [1] is > 100000 nM.
For `C[C@H]1COCCN1c1c(NC(=O)Nc2cnc(OC3CCN(C)CC3)c(Cl)c2)cnc2ccc(F)cc12`, in series [1], the IC50 came out at 70 nM. The same molecule had a solubility in series [3] of 60 µM (≈ 31.7 µg/mL).
Turning to `COc1ccc(NC(=O)Nc2cnc3ccc(Br)cc3c2Cl)cc1Cl`, the results for the IC50 in [1] and in [2] were 29 nM and 510 nM, respectively. Further, the solubility in [3] is < 4 µM.
The corresponding values for `CC1(C)COCCN1c1c(NC(=O)Nc2ccnc(C(F)(F)F)c2)cnc2cc(Cl)nn12` are 6 nM, 280 nM and 8 µM (≈ 3.76 µg/mL).
For `COc1ncc(NC(=O)Nc2cnc3ccc(F)cc3c2N(C)C2CCCN(C)C2)cc1Cl` (stereo not given), the results for the IC50 in series [1] and in series [21] were 70 nM and 9000 nM, respectively. Besides, the solubility in series [3] amounted to 61 µM (≈ 28.9 µg/mL).
`COc1ncc(NC(=O)Nc2cnc3cc(Br)nn3c2N2CCOC[C@@H]2C)cc1Cl`: the IC50 in [1] worked out at 17 nM; in [2], 740 nM. In series [3], this molecule came in with a solubility of 155 µM (≈ 77 µg/mL).
Regarding `COc1ccc(NC(=O)N[C@@H]2COc3ccccc3C2)cc1Cl`, in series [1], the IC50 is > 100000 nM.
For `COc1ccc(NC(=O)NC2COc3ccc(Br)cc3C2)cc1Cl` (racemic), the IC50 in [1] is 50 nM.
For `COc1ccc(NC(=O)Nc2cnc3ccc(C#N)cc3c2N(C)C2CCOCC2)cc1Cl`, the IC50 in series [1] is 8 nM; in series [2], 670 nM. This molecule also came in with a solubility in [3] of 27 µM (≈ 12.6 µg/mL). Further, the log1/S in [22] and in series [23] was 7.1 in each case. In series [22], the log1/S0 amounted to 7.1.
